pIC50: −log10 of the molar value. Active and inactive are the calls of the source. No rule for the calls is given here.
Tested on: P. yoelii liver stage in HepG2-A16-CD81EGFP, imaging
Test: exo-erythrocytic parasite development inhibition – imaging, Malaria Box, P. yoelii, HepG2-A16-CD81EGFP, dose response (AID 602156);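 also: infected cells exposed to compound for 48 hours before fixation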

Row | SMILES | pIC50 | IC50
1 | Cc1cccc(-c2cc3nc(C)c(C)c(=O)n3[nH]2)c1 | 5.96 | 
2 | CCCCCCOc1ccc(NC(=O)c2cccs2)cc1 | 6.86 | 
3 | N#CC1=C(N)Oc2c3c(c4ccccc4c2C1c1ccc(F)cc1)C(c1ccc(F)cc1)C(C#N)=C(N)O3 (stereo unspecified) | 5.41 | 
4 | Cc1cccc(NC(=S)NC2CC3CCCC(C2)N3CCc2ccccc2)c1 (stereo unspecified) | 6.56 | 
5 | CCCCCCN(C(=O)COc1ccccc1)C(CC)c1nc2ccccc2c(=O)n1-c1cccc(Cl)c1 (stereo unspecified) |  | > 10000 nM (inactive)
6 | COc1cccc(CNC(=O)C2CNCC2c2ccc(C(F)(F)F)cc2)c1 (stereo unspecified) | 6.07 | 
7 | COC(=O)c1c(-c2c(Cl)cccc2Cl)noc1NC(=O)NN1CCCCC1 | 6.19 | 
8 | O=C1c2ccccc2-n2c1nc1ccccc1c2=O | 6.65 | 
9 | CCCC[n+]1ccccc1C=C1Sc2ccccc2N1CC | 7.96 | 
10 | Cc1cc(Nc2cccc(F)c2)nc(NCc2ccccc2)n1 | 5.96 | 
11 | O=C(c1ccc2nc(N3CCCCC3)sc2c1)N1CCN(Cc2ccc3c(c2)OCO3)CC1 |  | > 9220 nM (inactive)
12 | CCCCCCCc1cc(O)c2c3c(c(=O)oc2c1)CCC(C)C3 (stereo unspecified) | 6.61 | 
13 | CCc1noc(C)c1C(=O)NCCN1Cc2ccccc2OC(c2ccsc2)C1 (stereo unspecified) |  | > 10000 nM (inactive)
14 | O=[N+]([O-])c1ccc(N2CCCN(C(=S)Nc3ccc(F)cc3Br)CC2)nc1 | 5.34 | 
15 | c1ccc(-c2cc(N3CCN(c4ccccn4)CC3)nc(-c3ccccn3)n2)nc1 | 7.76 | 
16 | CCOC(=O)c1c[nH]c2c3c(ccc2c1=O)CCCC3 | 7.97 | 
17 | CC1(C)N=C(N)N=C(N)N1c1ccc(F)cc1 | 7.72 | 
18 | COc1ccccc1-n1c(C=Cc2cc(Br)ccc2O)nc2ccccc2c1=O | 5.34 | 
19 | CCc1ccccc1N=C1c2c(cccc2[N+](=O)[O-])C(=O)C1C(C)=O (stereo unspecified) | 5.69 | 
20 | CCCCOc1ccc(C2C3CCCC=C3C(C#N)=C(N)C2(C#N)C#N)cc1 (stereo unspecified) |  | > 10000 nM (inactive)
21 | Oc1cccc(Nc2nc(NCC3CCCO3)c3ccccc3n2)c1 (stereo unspecified) | 5.98 | 
22 | O=C(NC1CC1)c1ccc(CSCc2ccccc2Cl)o1 | 6.85 | 
23 | CCN(c1ccccc1)S(=O)(=O)c1ccc(F)c(C(=O)Nc2c(C)cccc2C)c1 |  | > 10000 nM (inactive)

Row | SMILES | pIC50 | IC50
24 | CC(=O)Nc1cccc(-c2cncc(-c3ccc(C(=O)O)cc3)n2)c1 |  | > 10000 nM (inactive)
25 | CCN(CC)CCCC(C)Nc1c2ccc(Cl)cc2nc2ccc(OC)cc12 (stereo unspecified) | 6.78 | 
26 | COc1ccc(C2CC(=O)C3=C(C2)NC(C)=C(C(=O)OC2CCCC2)C3c2ccc([N+](=O)[O-])cc2)cc1OC (stereo unspecified) | 5.41 | 
27 | CC(C)(C)C1CCc2[nH]c3ccccc3c(=O)c2C1 (stereo unspecified) | 7.01 | 
28 | CCCCSc1oc(C)nc1[P+](c1ccccc1)(c1ccccc1)c1ccccc1 | 7.09 | 
29 | Cc1cccc2c1[nH]c1nc(SCC(C)C)nnc12 | 6.82 | 
30 | Fc1ccc(Nc2nc(NCc3ccco3)c3ccccc3n2)cc1 | 7.13 | 
31 | Cc1oc2c(c1C(=O)NCC1CCCO1)C(=O)c1ccccc1C2=O (stereo unspecified) | 6.72 | 
32 | Cc1ccc(CSCc2ccc(C(=O)NC3CC3)o2)cc1 | 7.33 | 
33 | Oc1c(C(Nc2ccccn2)c2cccc(Cl)c2Cl)ccc2cccnc12 (stereo unspecified) | 6.40 | 
34 | CN(C)c1cc[n+](CC(=O)Nc2ccc(Cl)cc2)cc1 | 6.23 | 
35 | CCCCN(CC)CCNC(=O)C1c2ccccc2C(=O)N(Cc2ccc(F)cc2)C1c1ccc(OC)cc1 (stereo unspecified) | 7.05 | 
36 | CCCCNC(=O)C1CCC(CN(Cc2c(Cl)cccc2Cl)S(=O)(=O)c2ccc(Br)cc2)CC1 (stereo unspecified) | 6.91 | 
37 | Brc1ccc(Nc2nc(NCc3ccco3)c3ccccc3n2)cc1 | 6.79 | 
38 | Cc1c(C#N)c2ccccc2n1CC(=O)Nc1ccc(Br)cc1 |  | > 10000 nM (inactive)
39 | Cc1cc(OC(C)C(=O)N2CCc3ccccc32)ccc1Cl (stereo unspecified) | 6.11 | 
40 | O=C(O)Cn1cnc2nc3n(c2c1=O)CCC3 |  | > 765 nM (inactive)
41 | COc1ccc(-c2n(CC(=O)OC3CC(C)CCC3C(C)C)c3ccccc3[n+]2C)cc1 (stereo unspecified) | 6.81 | 
42 | CN1C(=O)N(C)C(NNC(N)=S)C1NNC(N)=S (stereo unspecified) | 7.82 | 
43 | Clc1cccc(Nc2nc(NCc3ccco3)c3ccccc3n2)c1 | 6.42 | 
44 | O=C(Nc1ccc(-c2nc3ccc(NC(=O)c4cccc([N+](=O)[O-])c4)cc3[nH]2)cc1)c1cccc([N+](=O)[O-])c1 |  | > 944 nM (inactive)
45 | CC(=O)N1c2ccc(C)cc2C(C)(c2ccccc2)CC1(C)C (stereo unspecified) | 5.90 | 
46 | Cc1ccc(Nc2cc(C)nc(NCc3ccccc3)n2)c(C)c1 | 5.89 | 
